Laboratory results: patent US10519211B2, “Compounds as peptidic GLP1/glucagon/GIP receptor agonists” (SANOFI, priority 2016, dated 2019)
Numbered stars: 1 amine (or outer) side, 2 acyl side, 3 side chain; on linkers, the order of the positions; unused ones are H or OH. Square brackets hold non-standard residues; d marks the D form. Side chains are listed from the residue outwards. Peptide text beside a SMILES is read from it. * marks the point of attachment. γGlu = O=C(O)[C@H](CCC(=O)[*:2])N[*:1]; Palmitoyl = CCCCCCCCCCCCCCCC(=O)*; Aib = CC(C)(N)C(=O)O

System: female diet-induced obese (DIO) C57BL/6NHsd mice
Experiment: Acute and chronic effects after subcutaneous treatment in female diet-induced obese (DIO) mice
Assay type: in vivo, mouse
Conditions: for Body mass compared to the DIO-Vehicle group / Whole body fat mass compared to the DIO-Vehicle group / Plasma insulin concentrations compared to DIO vehicle / Plasma total cholesterol concentrations compared to DIO vehicle / Liver mass on day 28 compared to DIO animals treated with vehicle / Plasma alanine aminotransferase concentration on day 28 compared to DIO vehicle: 30 μg/kg s.c. twice daily; for Body mass compared to the DIO-Vehicle group / Whole body fat mass compared to the DIO-Vehicle group / Body mass change: 28 days; for Body mass compared to the DIO-Vehicle group / Whole body fat mass compared to the DIO-Vehicle group / Plasma insulin concentrations compared to DIO vehicle / Plasma total cholesterol concentrations compared to DIO vehicle / Liver mass on day 28 compared to DIO animals treated with vehicle / Plasma alanine aminotransferase concentration on day 28 compared to DIO vehicle / 24 hour blood glucose profile following first treatment: in words; for Plasma insulin concentrations compared to DIO vehicle / Plasma total cholesterol concentrations compared to DIO vehicle: day 28; for 24 hour blood glucose profile following first treatment: 30 μg/kg s.c., day 1, fed DIO mice, vs DIO control; for Body mass change / Whole body fat mass change / Terminal liver mass (g) / Terminal plasma alanine aminotransferase (U/L) / Terminal plasma insulin (U/L) / Terminal plasma total cholesterol (mmol/L): twice-daily 30 μg/kg s.c.; for Body mass change: mean ± SEM; for Whole body fat mass change: QNMR predose vs day 26, mean ± SEM; for Terminal liver mass (g) / Terminal plasma alanine aminotransferase (U/L) / Terminal plasma insulin (U/L) / Terminal plasma total cholesterol (mmol/L): day 28, mean ± SEM
Procedure: Female C57BL/6NHsd mice were ordered group housed from Envigo RMS Inc., shipped group housed and remained group housed with shipped cage mates in shoebox caging with wood chip bedding until day 38 of the predose phase. At the study start mice were between 25-26 weeks old.
Mice were housed under vivarium conditions that included a 12 h light/dark cycle (light phase 04:00 AM-4:00 PM), room temperatures between 23-26° C. and a relative humidity between 30-70%. All animals had free access to water and a high fat diet (TD97366) for 16 weeks prior to pharmacological intervention (dosing phase). Feed was replaced with fresh feed weekly until and for the last time on day 38 of the predose phase. During the subsequent dosing phase, approximately 50% of the remaining feed were removed, replaced with fresh feed, and pellets were mixed evenly once per week.
On predose day 38, obese DIO mice were assigned to treatment groups (n=8) to match mean body masses between all DIO groups. An age-matched group with ad libitum access to a rodent maintenance diet (Teklad Global Diets Rodent 2014, pelleted) was included in the study as a lean control group. In the predosing phase from day 32 through 38, all study animals were treated with vehicle (Phosphate Buffered Saline, PBS, Gibco, without CaCl2 and MgCl2) once daily (s.c. approximately 0.2 mL/mouse).
On day 37 of the predose phase, the test article was diluted with PBS to a concentration of 100 μg/mL and aliquots of this stock solution were stored at approximately ≤−60° C. Stock aliquots were thawed for weekly use and thereafter stored in a refrigerator at approximately 4° C. The injected test article solution was prepared fresh once on each dosing day by diluting stock solution with PBS to achieve the desired concentration.
Mice were treated twice daily with a s.c. injection of PBS-vehicle or the test article for 28 days. The morning dosing was initiated and completed between 06:00 and 07:30 AM and the afternoon dosing between 2:00 and 3:30 PM. On day 28 of the dosing phase only the morning dose was administered. The applied volume was 5 ml/kg and the dose was adjusted to the most recent body mass recording of each individual.
Animals had unlimited access to water and feed during the experiment. On day 1 of the dosing phase approximately 5 μL of blood were collected via tail clips at hour 0, prior to the first s.c. dose of PBS-vehicle or test-article as well as 1, 2, 3, 4, 6, and 24 hours post-dose. Animals received the second s.c. dose of PBS-vehicle or test-article 8 hours after the first dose. The 24 hour blood collection of the blood glucose profile was performed prior to dosing on day 2. Glucose measurements were performed in whole blood and in duplicate or triplicate using Aviva glucometers.
Body mass was measured daily approximately between 06:00-07:30 AM from day 32 through 38 of the predosing phase and throughout the 28 days of the dosing phase. During the dosing phase mice were treated twice daily with either a s.c. injection of PBS-vehicle or test article.
To determine whole body fat mass Quantitative Nuclear Magnetic Resonance (QNMR) measurements were performed on predosing day 37 and on day 26 of the dosing phase. During the dosing phase mice were treated twice daily with either a s.c. injection of PBS-vehicle or test article.
On day 28 blood was collected prior to any other inlife activities for determination of plasma insulin concentrations. Then the morning dose was administered and necropsy was performed 4 hours post-dose. For this purpose animals were anesthetized with isoflurane and blood was collected by orbital bleeding.
On day 28 and 4 hours after the morning dose, blood was collected from mice under isoflurane anesthesia as described above. Then mice were killed and livers were collected and weighed.
Data are depicted as means±SEM. […] A One-Way ANOVA and Tukey Test were used for pairwise multiple comparisons of all groups (n=8/group, deviations from group size are indicated). […]

Row | SMILES | Body mass compared to the DIO-Vehicle group | Whole body fat mass compared to the DIO-Vehicle group | Plasma insulin concentrations compared to DIO vehicle | Plasma total cholesterol concentrations compared to DIO vehicle | Liver mass on day 28 compared to DIO animals treated with vehicle | Plasma alanine aminotransferase concentration on day 28 compared to DIO vehicle | 24 hour blood glucose profile following first treatment | Body mass change (Table 9) | Whole body fat mass change (Table 9) | Terminal liver mass (g) (Table 9) | Terminal plasma alanine aminotransferase (U/L) (Table 9) | Terminal plasma insulin (U/L) (Table 9) | Terminal plasma total cholesterol (mmol/L) (Table 9) | Body mass change (Table 11) | Whole body fat mass change (Table 11) | Terminal liver mass (g) (Table 11) | Terminal plasma alanine aminotransferase (U/L) (Table 11) | Terminal plasma insulin (U/L) (Table 11) | Terminal plasma total cholesterol (mmol/L) (Table 11)
1 | CCCCCCCCCCCCCCCC(=O)N[C@@H](CCC(=O)N[C@@H](CCC(=O)NCCCC[C@H](NC(=O)[C@H](CC(C)C)NC(=O)[C@H](CCCCN)NC(=O)[C@H](CO)NC(=O)[C@H](CC(C)C)NC(=O)[C@H](CC(=O)O)NC(=O)[C@H](CO)NC(=O)[C@@H](NC(=O)[C@H](Cc1ccccc1)NC(=O)[C@@H](NC(=O)CNC(=O)[C@H](CCC(N)=O)NC(=O)C(C)(C)NC(=O)[C@@H](N)Cc1c[nH]cn1)[C@@H](C)O)[C@@H](C)O)C(=O)N[C@@H](CCC(=O)O)C(=O)N[C@@H](CCCCN)C(=O)N[C@@H](CCC(N)=O)C(=O)N[C@@H](CCCNC(=N)N)C(=O)N[C@@H](CCC(N)=O)C(=O)NC(C)(C)C(=O)N[C@@H](CCC(=O)O)C(=O)N[C@@H](Cc1ccccc1)C(=O)N[C@H](C(=O)N[C@@H](CCC(=O)O)C(=O)N[C@@H](Cc1c[nH]c2ccccc12)C(=O)N[C@@H](CC(C)C)C(=O)N[C@@H](CCCCN)C(=O)N[C@@H](C)C(=O)N[C@H](C)C(=O)NCC(=O)N1CCC[C@H]1C(=O)N1CCC[C@H]1C(=O)N[C@@H](CO)C(=O)NC(C)(C)C(=O)N[C@@H](CCCCN)C(=O)N1CCC[C@H]1C(=O)N1CCC[C@H]1C(=O)N1CCC[C@H]1C(=O)N[C@@H](CCCCN)C(N)=O)[C@@H](C)CC)C(=O)O)C(=O)O [SEQ ID NO: 7, H-Aib-Q-G-T-F-T-S-D-L-S-K-L-K[gGlu-gGlu-Palm]-E-K-Q-R-Q-Aib-E-F-I-E-W-L-K-A-dAla-G-P-P-S-Aib-K-P-P-P-K-NH2] (H-H[Aib]QGTFTSDLSKLK([γGlu-γGlu-Palmitoyl])EKQRQ[Aib]EFIEWLKA[dA]GPPS[Aib]KPPPK-NH2) | statistically significant decrease in body mass | statistically significantly reduction in whole body fat mass | statistically significant reduction in plasma insulin concentrations | statistically significant reduction in plasma total cholesterol concentrations | statistically significantly lower liver mass | statistically significantly lower plasma alanine aminotransferase concentration | decrease in blood glucose concentrations below concentrations observed in DIO control mice | -5.58 ± 0.60 g | -4.46 ± 0.50 g | +1.14 ± 0.04 g | +47.63 ± 6.76 U/L | +58.04 ± 6.33 U/L | +4.19 ± 0.15 mmol/L |  |  |  |  |  | 
2 | CCCCCCCCCCCCCCCC(=O)N[C@@H](CCC(=O)N[C@@H](CCC(=O)NCCCC[C@H](NC(=O)[C@H](CC(C)C)NC(=O)[C@H](CCCCN)NC(=O)[C@H](CO)NC(=O)[C@H](CC(C)C)NC(=O)[C@H](CC(=O)O)NC(=O)[C@H](CO)NC(=O)[C@@H](NC(=O)[C@H](Cc1ccccc1)NC(=O)[C@@H](NC(=O)CNC(=O)[C@H](CCC(N)=O)NC(=O)C(C)(C)NC(=O)[C@@H](N)Cc1c[nH]cn1)[C@@H](C)O)[C@@H](C)O)C(=O)N[C@@H](CCC(=O)O)C(=O)N[C@@H](CCCCN)C(=O)N[C@@H](CCC(N)=O)C(=O)N[C@@H](CCCNC(=N)N)C(=O)N[C@@H](CCC(N)=O)C(=O)NC(C)(C)C(=O)N[C@@H](CCC(=O)O)C(=O)N[C@@H](Cc1ccccc1)C(=O)N[C@H](C(=O)N[C@@H](CCC(=O)O)C(=O)N[C@@H](Cc1c[nH]c2ccccc12)C(=O)N[C@@H](CC(C)C)C(=O)N[C@@H](CCCCN)C(=O)N[C@@H](C)C(=O)NCC(=O)NCC(=O)N1CCC[C@H]1C(=O)N1CCC[C@H]1C(=O)N[C@@H](CO)C(=O)NC(C)(C)C(=O)N[C@@H](CCCCN)C(=O)N1CCC[C@H]1C(=O)N1CCC[C@H]1C(=O)N1CCC[C@H]1C(=O)N[C@@H](CCCCN)C(N)=O)[C@@H](C)CC)C(=O)O)C(=O)O [SEQ ID NO: 6, H-Aib-Q-G-T-F-T-S-D-L-S-K-L-K[gGlu-gGlu-Palm]-E-K-Q-R-Q-Aib-E-F-I-E-W-L-K-A-G-G-P-P-S-Aib-K-P-P-P-K-NH2] | statistically significant decrease in body mass | statistically significantly reduction in whole body fat mass | statistically significant reduction in plasma insulin concentrations | statistically significant reduction in plasma total cholesterol concentrations | statistically significantly lower liver mass | statistically significantly lower plasma alanine aminotransferase concentration | decrease in blood glucose concentrations below concentrations observed in DIO control mice | -5.36 ± 0.36 g | -4.33 ± 0.42 g | +1.16 ± 0.04 g | +62.25 ± 9.79 U/L | +31.07 ± 5.26 U/L | +5.11 ± 0.12 mmol/L |  |  |  |  |  | 
3 | CCCCCCCCCCCCCCCC(=O)N[C@@H](CCC(=O)N[C@@H](CCC(=O)NCCCC[C@H](NC(=O)[C@H](CC(C)C)NC(=O)[C@H](CCCCN)NC(=O)[C@H](CO)NC(=O)[C@H](CC(C)C)NC(=O)[C@H](CC(=O)O)NC(=O)[C@H](CO)NC(=O)[C@@H](NC(=O)[C@H](Cc1ccccc1)NC(=O)[C@@H](NC(=O)CNC(=O)[C@H](CCC(N)=O)NC(=O)C(C)(C)NC(=O)[C@@H](N)Cc1c[nH]cn1)[C@@H](C)O)[C@@H](C)O)C(=O)N[C@@H](CCC(=O)O)C(=O)N[C@@H](CCC(=O)O)C(=O)N[C@@H](CCC(N)=O)C(=O)N[C@@H](CCCNC(=N)N)C(=O)N[C@@H](CCC(N)=O)C(=O)NC(C)(C)C(=O)N[C@@H](CCC(=O)O)C(=O)N[C@@H](Cc1ccccc1)C(=O)N[C@H](C(=O)N[C@@H](CCC(=O)O)C(=O)N[C@@H](Cc1c[nH]c2ccccc12)C(=O)N[C@@H](CC(C)C)C(=O)N[C@@H](CCCCN)C(=O)N[C@@H](C)C(=O)NCC(=O)NCC(=O)N1CCC[C@H]1C(=O)N1CCC[C@H]1C(=O)N[C@@H](CO)C(=O)NC(C)(C)C(=O)N[C@@H](CCCCN)C(=O)N1CCC[C@H]1C(=O)N1CCC[C@H]1C(=O)N1CCC[C@H]1C(=O)N[C@@H](CCCCN)C(N)=O)[C@@H](C)CC)C(=O)O)C(=O)O [SEQ ID NO: 9, H-Aib-Q-G-T-F-T-S-D-L-S-K-L-K[gGlu-gGlu-Palm]-E-E-Q-R-Q-Aib-E-F-I-E-W-L-K-A-G-G-P-P-S-Aib-K-P-P-P-K-NH2] | statistically significant decrease in body mass | statistically significantly reduction in whole body fat mass | statistically significant reduction in plasma insulin concentrations | statistically significant reduction in plasma total cholesterol concentrations | statistically significantly lower liver mass | statistically significantly lower plasma alanine aminotransferase concentration | decrease in blood glucose concentrations below concentrations observed in DIO control mice |  |  |  |  |  |  | -10.03 ± 2.33 g | -5.29 ± 2.32 g | +1.11 ± 0.06 g | +57.13 ± 7.33 U/L | +38.95 ± 7.30 U/L | +3.97 ± 0.12 mmol/L
